# Test results: patent publication US20120258980A1, “Antibacterial Agent for Drug-Resistant Bacteria, Method for Screening for Same, and Use of Same” (priority 2009, published 2012)
# Read-outs that look alike come from different tables or passages of the source.
# Experiments:
# [1] = system: methicillin-susceptible S. aureus (MSSA), MRSA and mutants thereof; test: MIC measurement, Test Example 3 (MSSA, MRSA and sequential gyrA/grlA quinolone-resistant mutants); assay type: cell-based, Staphylococcus aureus; settings: for MIC: Staphylococcus aureus
# Summary of the method: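 Clinical isolates and stepwise gyrA/grlA quinolone-resistant mutants grown overnight at 37° C in TSB, adjusted to A578 0.3 in CAMHB, diluted 500-fold and mixed 1:1 with drug dilutions in CAMHB.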
# [2] = system: VISA clinical isolates of MRSA (VI-MRSA) and of MSSA (VI-MSSA); test: microbe, parasite or virus in culture; assay type: cell-based, Staphylococcus aureus
# Summary of the method: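 Strains were grown overnight at 37° C in TSB, adjusted in CAMHB to 0.3 absorbance at 578 nm and diluted 500-fold before equal-volume addition to compound dilutions.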
# Enterococcus faecalis = test: MIC measurement, Test Example 6 (enterococcus); assay type: cell-based; settings: Enterococcus faecalis, read-out: MIC
# Summary of the method: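 E. faecalis strains, including vancomycin-resistant NCTC12201 and NCTC12203, pre-grown overnight in TSB at 37° C, set to A578 0.3 in CAMHB, then diluted 500-fold.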
# VRSA clinical isolates = test: microbe, parasite or virus in culture; assay type: cell-based; settings: Staphylococcus aureus
# Procedure: Each of the bacterial strains listed in Table 1-1 was shake-cultured at 37° C. overnight in 4 mL of a medium (Tryptical Soy Broth: TSB, product of Becton Dickinson and Company). FDA209P was used as a control.
# After completion of culturing, the resultant culture was suspended in a cation-adjusted Mueller Hinton Broth (CAMHB, product of Becton Dickinson and Company). Then, the obtained bacterial culture was adjusted in absorbance with the CAMHB so that the absorbance at 578 nm of the bacterial culture was adjusted to 0.3 measured by an absorption spectrometer. In addition, the resultant bacterial culture was 500-fold diluted with the CAMHB.
# Each of the 500-fold diluted, pre-cultured bacterial cultures was added at 50 μL/well to the CAMHB containing the quinolones and the nybomycins at various concentrations (50 μL/well), followed by statically culturing at 37° C. overnight.
# After completion of culturing, the growth of the bacteria was visually determined based on turbidity to measure MIC in each bacterial strain.
# Here, the glycopeptides used were VCM and TEIC. The β-lactam used was OXA.
structure (smiles),measurement,setting,value
"Cc1cc(=O)n(C)c2c3c4c(cc12)c(C)cc(=O)n4CO3 [DNM, deoxynybomycin]",MIC,"[1]; MR5867-2, second-step mutant, further gyrA S84L",≤ 0.063 µg/mL
same,MIC,"[1]; MR5867-3, third-step mutant, further grlA S80F",≤ 0.063 µg/mL
same,MIC,"[1]; MR5867-4, fourth-step mutant, further gyrA E88K",≤ 0.063 µg/mL
same,MIC,"[1]; MS5935-2, second-step mutant, further gyrA S84L",0.5 µg/mL
same,MIC,"[1]; MS5935-3, third-step mutant, further grlA E84K",0.5 µg/mL
same,MIC,"[1]; MS5952-2, second-step mutant, further gyrA S84L",0.5 µg/mL
same,MIC,"[1]; MS5952-3, third-step mutant, further grlA A116V",≤ 0.063 µg/mL
same,"antibacterial activity, comparison between NM and DNM",[1]; Table 1-2 strains,higher than that of NM
same,MIC,"[2]; Staphylococcus aureus, 99/3700-W, VI-MRSA, The United Kingdom",0.25 µg/mL
same,MIC,"[2]; Staphylococcus aureus, 99/3759-V, VI-MRSA, The United Kingdom",1 µg/mL
same,MIC,"[2]; Staphylococcus aureus, 28160, VI-MRSA, South African Republic",0.125 µg/mL
same,MIC,"[2]; Staphylococcus aureus, 98141, VI-MRSA, France",0.125 µg/mL
same,MIC,"[2]; Staphylococcus aureus, A7 (JCSC4842), VI-MRSA, Taiwan",≤ 0.063 µg/mL
same,MIC,"[2]; Staphylococcus aureus, AMC11094, VI-MRSA, Korea",0.125 µg/mL
same,MIC,"[2]; Staphylococcus aureus, B7 (JCSC4852), VI-MRSA, Taiwan",0.125 µg/mL
same,MIC,"[2]; Staphylococcus aureus, BR1, VI-MRSA, Brazil",0.25 µg/mL
same,MIC,"[2]; Staphylococcus aureus, BR2, VI-MRSA, Brazil",0.125 µg/mL
same,MIC,"[2]; Staphylococcus aureus, BR3, VI-MRSA, Brazil",0.125 µg/mL
same,MIC,"[2]; Staphylococcus aureus, BR4, VI-MRSA, Brazil",0.25 µg/mL
same,MIC,"[2]; Staphylococcus aureus, BR5, VI-MRSA, Brazil",0.25 µg/mL
same,MIC,"[2]; Staphylococcus aureus, HIP06297, VI-MRSA, America",0.125 µg/mL
same,MIC,"[2]; Staphylococcus aureus, HIP06854, VI-MRSA, America",0.5 µg/mL
same,MIC,"[2]; Staphylococcus aureus, HIP07920, VI-MRSA, America",0.25 µg/mL
same,MIC,"[2]; Staphylococcus aureus, HIP07930, VI-MRSA, America",0.5 µg/mL
same,MIC,"[2]; Staphylococcus aureus, HIP08926, VI-MRSA, America",0.5 µg/mL
same,MIC,"[2]; Staphylococcus aureus, HIP09143, VI-MRSA, America",0.5 µg/mL
same,MIC,"[2]; Staphylococcus aureus, HIP09313, VI-MRSA, America",0.125 µg/mL
same,MIC,"[2]; Staphylococcus aureus, HIP09433, VI-MRSA, America",0.5 µg/mL
same,MIC,"[2]; Staphylococcus aureus, HIP09662, VI-MRSA, America",0.25 µg/mL
same,MIC,"[2]; Staphylococcus aureus, HIP09735, VI-MRSA, America",0.5 µg/mL
same,MIC,"[2]; Staphylococcus aureus, HIP09737, VI-MSSA, America",1 µg/mL
same,MIC,"[2]; Staphylococcus aureus, HIP09740, VI-MRSA, America",0.25 µg/mL
same,MIC,"[2]; Staphylococcus aureus, HIP10267, VI-MRSA, America",0.25 µg/mL
same,MIC,"[2]; Staphylococcus aureus, HIP10540, VI-MRSA, America",≤ 0.063 µg/mL
same,MIC,"[2]; Staphylococcus aureus, HIP12864, VI-MRSA, America",0.125 µg/mL
same,MIC,"[2]; Staphylococcus aureus, HIP13036, VI-MRSA, America",0.25 µg/mL
same,MIC,"[2]; Staphylococcus aureus, HIP13057, VI-MRSA, America",0.125 µg/mL
same,MIC,"[2]; Staphylococcus aureus, IL (HIP7737), VI-MRSA, America",1 µg/mL
same,MIC,"[2]; Staphylococcus aureus, JCSC7193, VI-MRSA, Thailand",0.33 µg/mL
same,MIC,"[2]; Staphylococcus aureus, JCSC7195, VI-MRSA, Thailand",0.16 µg/mL
same,MIC,"[2]; Staphylococcus aureus, JCSC7203, VI-MRSA, Thailand",0.16 µg/mL
same,MIC,"[2]; Staphylococcus aureus, LIM2, VI-MRSA, France",0.25 µg/mL
same,MIC,"[2]; Staphylococcus aureus, LY-1999-01, VI-MSSA, Oman",≤ 0.063 µg/mL
same,MIC,"[2]; Staphylococcus aureus, LY-1999-03, VI-MRSA, Oman",≤ 0.063 µg/mL
same,MIC,"[2]; Staphylococcus aureus, MI (HIP5827), VI-MRSA, America",≤ 0.063 µg/mL
same,MIC,"[2]; Staphylococcus aureus, MRSA / MSSA / NRS 76 / VISA, NRS76, VI-MSSA, America",≤ 0.063 µg/mL
same,MIC,"[2]; Staphylococcus aureus, MRSA / MSSA / NRS 79 / VISA, NRS79, VI-MRSA, America",1 µg/mL
same,MIC,"[2]; Staphylococcus aureus, MRSA / MSSA / NRS 118 / VISA, NRS118, VI-MRSA, America",2 µg/mL
same,MIC,"[2]; Staphylococcus aureus, MRSA / MSSA / NRS 126 / VISA, NRS126, VI-MRSA, America",0.5 µg/mL
same,MIC,"[2]; Staphylococcus aureus, Mu3, VI-MRSA, Japan",0.5 µg/mL
same,MIC,"[2]; Staphylococcus aureus, Mu50, VI-MRSA, Japan",0.25 µg/mL
same,MIC,"[2]; Staphylococcus aureus, NJ (HIP5836), VI-MRSA, America",0.25 µg/mL
same,MIC,"[2]; Staphylococcus aureus, P1V44, VI-MSSA, Belgium",0.5 µg/mL
same,MIC,"[2]; Staphylococcus aureus, PC, VI-MRSA, America",0.125 µg/mL
same,MIC,"[2]; Staphylococcus aureus, SA MER-S6, VI-MSSA, France",> 64 µg/mL
same,MIC,"[2]; Staphylococcus aureus, SA MER-S12, VI-MSSA, France",> 64 µg/mL
same,MIC,"[2]; Staphylococcus aureus, SA MER-S20, VI-MSSA, France",> 64 µg/mL
same,MIC,"Enterococcus faecalis; E. faecalis 36-15672, quinolone-susceptible enterococci",> 64 µg/mL
same,MIC,"Enterococcus faecalis; E. faecalis 36-15673, quinolone-susceptible enterococci",> 64 µg/mL
same,MIC,"Enterococcus faecalis; E. faecalis 36-15678, quinolone-susceptible enterococci",> 64 µg/mL
same,MIC,"Enterococcus faecalis; E. faecalis 36-15686, quinolone-resistant enterococci",2 µg/mL
same,MIC,"Enterococcus faecalis; E. faecalis 36-15688, quinolone-susceptible enterococci",> 64 µg/mL
same,MIC,"Enterococcus faecalis; E. faecalis 36-15694, quinolone-resistant enterococci",2 µg/mL
same,MIC,"Enterococcus faecalis; E. faecalis 36-15696, quinolone-susceptible enterococci",> 64 µg/mL
same,MIC,"Enterococcus faecalis; E. faecalis 36-15703, quinolone-resistant enterococci",0.25 µg/mL
same,MIC,"Enterococcus faecalis; E. faecalis 36-15716, quinolone-resistant enterococci",4 µg/mL
same,MIC,"Enterococcus faecalis; E. faecalis 36-15718, quinolone-susceptible enterococci",32 µg/mL
same,MIC,"Enterococcus faecalis; E. faecalis 36-15720, quinolone-susceptible enterococci",> 64 µg/mL
same,MIC,"Enterococcus faecalis; E. faecalis 36-15722, quinolone-resistant enterococci",4 µg/mL
same,MIC,"Enterococcus faecalis; E. faecalis 36-15726, quinolone-resistant enterococci",2 µg/mL
same,MIC,"Enterococcus faecalis; E. faecalis 36-15730, quinolone-susceptible enterococci",64 µg/mL
same,MIC,"Enterococcus faecalis; E. faecalis 36-15736, quinolone-susceptible enterococci",> 64 µg/mL
same,MIC,"Enterococcus faecalis; E. faecalis 36-15741, quinolone-susceptible enterococci",> 64 µg/mL
same,MIC,"Enterococcus faecalis; NCTC 12201 / VRE, E. faecalis NCTC12201, vancomycin-resistant (VRE), quinolone-susceptible enterococci",16 µg/mL
same,MIC,"Enterococcus faecalis; NCTC 12203 / VRE, E. faecalis NCTC12203, vancomycin-resistant (VRE), quinolone-susceptible enterococci",> 64 µg/mL
same,MIC,"VRSA clinical isolates; VRS1, VRSA, Michigan",≤ 0.063 µg/mL
same,MIC,"VRSA clinical isolates; VRS2, VRSA, Pennsylvania",0.125 µg/mL
same,MIC,"VRSA clinical isolates; VRS3, VRSA, New York",≤ 0.063 µg/mL
same,MIC,"VRSA clinical isolates; VRS4, VRSA, New York",≤ 0.063 µg/mL
same,MIC,"VRSA clinical isolates; VRS5, VRSA, Michigan",≤ 0.063 µg/mL
same,MIC,"VRSA clinical isolates; VRS6, VRSA, Michigan",≤ 0.063 µg/mL
same,MIC,"VRSA clinical isolates; VRS7, VRSA, Michigan",0.125 µg/mL
